# In patent US20200008426A1, “ACTIVE COMPOUND COMBINATIONS” (BAYER AKTIENGESELLSCHAFT, priority 2017, published 2020):
# Where two headings read alike, the source gives them in different places.
# What was measured:
# Venturia inaequalis = test: In vivo preventive test on Venturia (apples); conditions: Table E2, 10 days after inoculation
# Protocol: The test is evaluated 10 days after the inoculation.
# [1] = tested on: Blumeria graminis f.sp. hordei; test: In vivo preventive Blumeria test (barley); conditions: Table F2, 7 days after inoculation
# Puccinia triticina = test: In vivo preventive Puccinia triticina test (wheat); conditions: Puccinia triticina, 192 h, 8 days after inoculation, read-out: Efficacy in % found; for pest or weed control at 250 ppm: 250 ppm a.i.; for pest or weed control at 20 ppm: 20 ppm a.i.; for pest or weed control at 40 ppm: 40 ppm a.i.; for pest or weed control at 80 ppm: 80 ppm a.i.; for pest or weed control at 7.5 ppm: 7.5 ppm a.i.; for pest or weed control at 15 ppm: 15 ppm a.i.; for pest or weed control at 30 ppm: 30 ppm a.i.
# Protocol: After the spray coating has been dried, the plants are sprayed with a spore suspension of Puccinia triticina.
# The test is evaluated 8 days after the inoculation.
# Septoria tritici = test: In vivo preventive Septoria tritici test (wheat); conditions: Zymoseptoria tritici, 504 h, 21 days after inoculation, read-out: Efficacy in % found; for pest or weed control at 125 ppm: 125 ppm a.i.; for pest or weed control at 250 ppm: 250 ppm a.i.; for pest or weed control at 40 ppm: 40 ppm a.i.
# Protocol: After the spray coating has been dried, the plants are sprayed with a spore suspension of Septoria tritici.
# The test is evaluated 21 days after the inoculation.
# Leptosphaeria nodorum = test: In vitro-Test with Leptosphaeria nodorum; assay type: cell-based; conditions: 0.04 ppm
# Phakopsora pachyrhizi = test: In vivo preventive test on Phakopsora (soybeans); conditions: Table C3, 7 days after inoculation
# [2] = In vivo ecotoxicity screening test on fish (Danio rerio); conditions: Danio rerio, in vivo, other: exposure of embryos to the aqueous preparation
# Protocol: (§1) with ECxi the Effect Concentration (EC) of each chemical i (in ppm) causing x % effect on the ecotoxicity test endpoint.
# (§2) For each compound combination, the predicted ECx value is calculated. It is then compared to an experimentally measured value. The ratio of predicted versus measured effect for the combination (thereafter called the Model Deviation Ratio or MDR) is then calculated.
# (§3) The environmental effect of the compound combinations was measured experimentally in laboratory ecotoxicity screening studies with fish (Danio rerio). […] Mortality was recorded after 96 h for each tested concentration and a reference control. […] Then, the MDR values were calculated.
# (§4) • Solvent: 0.5% by weight dimethyl sulfoxide
# (§5) This concentrate is then diluted with water to the desired a.i. concentration, leading to a maximal solvent concentration of 0.5% by weight. The compounds alone and the combinations were tested for five increasing concentrations between 0.01 and 1000 ppm a.i., (e.g. 0.1, 1.0, 10 and 100 ppm a.i). For the combinations, compounds A and B were mixed in a weight ratio of 5:1 to 1:5 and five increasing concentrations were tested for each ratio.
# Botrytis cinerea = test: In vitro-Test with Botrytis cinerea; assay type: cell-based
# Fusarium culmorum = test: In vitro-Test with Fusarium culmorum; assay type: cell-based
# Pyrenophora teres = test: In vitro-Test with Pyrenophora teres; assay type: cell-based
# Rhizoctonia solani = test: In vitro-Test with Rhizoctonia solani; assay type: cell-based
# Sphaerotheca fuliginea = test: In vivo preventive test on Sphaerotheca (cucumbers); conditions: 7 days after inoculation
# [3] = tested on: fish (Danio rerio) embryos; test: In vivo ecotoxicity screening test on fish (Danio rerio); conditions: active compound alone; fish embryos, 96 h, 28.5° C.
# Protocol: as §1, §2, §3, §4, §5
# Pyricularia oryzae = assay type: cell-based
# Ustilago avenae = test: In vitro-Test with Ustilago avenae; assay type: cell-based; conditions: compound alone
structure (smiles),measurement,setting,value
"N#Cc1c(Cl)c(Cl)c(Cl)c(C#N)c1Cl [Example 5.004, chlorothalonil]",Efficacy in % found,Venturia inaequalis; 12.5 ppm a.i.,24%
same,Efficacy in % found,Venturia inaequalis; 25 ppm a.i.,14%
same,Efficacy in % found,Venturia inaequalis; 50 ppm a.i.,93%
same,Efficacy in % found,[1]; 62.5 ppm a.i.,22%
same,Efficacy in % found,[1]; 125 ppm a.i.,44%
same,Efficacy in % found,[1]; 250 ppm a.i.,44%
same,pest or weed control at 62.5 ppm,Puccinia triticina; 62.5 ppm a.i.,0%
same,pest or weed control at 250 ppm,Puccinia triticina,40%
same,pest or weed control at 62.5 ppm,Septoria tritici; 62.5 ppm a.i.,0%
same,pest or weed control at 125 ppm,Septoria tritici,0%
same,pest or weed control at 250 ppm,Septoria tritici,14%
same,Efficacy %,Leptosphaeria nodorum,0%
same,Efficacy in % found,Phakopsora pachyrhizi; 25 ppm a.i.,8%
same,Efficacy in % found,Phakopsora pachyrhizi; 50 ppm a.i.,0%
"CC(O)(Cn1cncn1)c1ccc(Oc2ccc(Cl)cc2)nc1C(F)(F)F (centres unmarked) [I.01, 2-[6-(4-chlorophenoxy)-2-(trifluoromethyl)pyridin-3-yl]-1-(1H-1,2,4-triazol-1-yl)propan-2-ol]",pest or weed control at 20 ppm,Puccinia triticina,30%
same,pest or weed control at 40 ppm,Puccinia triticina,50%
same,pest or weed control at 80 ppm,Puccinia triticina,60%
same,pest or weed control at 40 ppm,Septoria tritici,63%
same,LC50 at 96 h,[2],6.21 µg/mL
"CC(O)(Cn1cncn1)c1ccc(Oc2ccc(Br)cc2)nc1C(F)(F)F (centres unmarked) [I.59, 2-[6-(4-bromophenoxy)-2-(trifluoromethyl)pyridin-3-yl]-1-(1H-1,2,4-triazol-1-yl)propan-2-ol]",LC50 at 96 h,[2],6 µg/mL
"CC1(C)N=C(c2cnc3ccccc3c2)c2ccccc2C1(F)F [Example 15.047, 3-(4,4-difluoro-3,3-dimethyl-3,4-dihydroisoquinolin-1-yl)quinoline]",pest or weed control at 125 ppm,Puccinia triticina; 125 ppm a.i.,11%
same,pest or weed control at 250 ppm,Puccinia triticina,11%
same,pest or weed control at 500 ppm,Puccinia triticina; 500 ppm a.i.,22%
same,pest or weed control at 125 ppm,Septoria tritici,0%
same,pest or weed control at 250 ppm,Septoria tritici,0%
same,pest or weed control at 500 ppm,Septoria tritici; 500 ppm a.i.,0%
same,Efficacy %,Botrytis cinerea; 1 ppm,0%
same,Efficacy %,Botrytis cinerea; 5 ppm,0%
same,Efficacy %,Fusarium culmorum; 0.04 ppm,83%
same,Efficacy %,Fusarium culmorum; 0.2 ppm,100%
same,Efficacy %,Pyrenophora teres; 0.04 ppm,28%
same,Efficacy %,Pyrenophora teres; 0.2 ppm,76%
same,Efficacy %,Pyrenophora teres; 1 ppm,64%
same,Efficacy %,"Rhizoctonia solani; 1 ppm, compound alone",0%
same,Efficacy %,"Rhizoctonia solani; 5 ppm, compound alone",0%
same,LC50 at 96 h,[2],7.82 µg/mL
same,Efficacy in % found,"Sphaerotheca fuliginea; Table D2, 2.5 ppm a.i.",0%
same,Efficacy in % found,"Sphaerotheca fuliginea; Table D2, 5 ppm a.i.",0%
same,Efficacy in % found,"Sphaerotheca fuliginea; Table D2, 10 ppm a.i.",8%
"CC(C)C1CCC(Cc2ccc(Cl)cc2)C1(O)Cn1cncn1 (centres unmarked) [Example 1.012, ipconazole]",pest or weed control at 20 ppm,Puccinia triticina,0%
same,pest or weed control at 40 ppm,Puccinia triticina,44%
same,pest or weed control at 80 ppm,Puccinia triticina,100%
same,pest or weed control at 20 ppm,Puccinia triticina; Table H1,0%
same,pest or weed control at 40 ppm,Puccinia triticina; Table H1,67%
same,pest or weed control at 80 ppm,Puccinia triticina; Table H1,89%
same,pest or weed control at 20 ppm,Septoria tritici; 20 ppm a.i.,0%
same,pest or weed control at 40 ppm,Septoria tritici,0%
same,pest or weed control at 80 ppm,Septoria tritici; 80 ppm a.i.,0%
same,Efficacy %,Fusarium culmorum; 0.04 ppm,7%
same,Efficacy %,Fusarium culmorum; 0.2 ppm,13%
same,Efficacy %,Fusarium culmorum; 1 ppm,96%
same,Efficacy %,Fusarium culmorum; 5 ppm,99%
same,Efficacy %,Rhizoctonia solani; 0.04 ppm,35%
same,Efficacy %,Rhizoctonia solani; 0.2 ppm,96%
same,Ecotoxicity LC50-96 h found,[3],6.57 ppm a.i.
same,Efficacy in % found,"Sphaerotheca fuliginea; Table D1, 2.5 ppm a.i.",26%
same,Efficacy in % found,"Sphaerotheca fuliginea; Table D1, 5 ppm a.i.",87%
same,Efficacy in % found,"Sphaerotheca fuliginea; Table D1, 10 ppm a.i.",100%
"CC(C)c1ccc(Cl)cc1CN(C(=O)c1c(C(F)F)nn(C)c1F)C1CC1 [Example 2.038, N-(5-chloro-2-isopropylbenzyl)-N-cyclopropyl-3-(difluoromethyl)-5-fluoro-1-methyl-1H-pyrazole-4-carboxamide]",pest or weed control at 7.5 ppm,Puccinia triticina,22%
same,pest or weed control at 15 ppm,Puccinia triticina,33%
same,pest or weed control at 30 ppm,Puccinia triticina,44%
same,pest or weed control at 7.5 ppm,Puccinia triticina; Table H1,33%
same,pest or weed control at 15 ppm,Puccinia triticina; Table H1,33%
same,pest or weed control at 30 ppm,Puccinia triticina; Table H1,33%
same,Efficacy %,Pyrenophora teres; 0.8 ppm,57%
same,Efficacy %,Pyrenophora teres; 4 ppm,82%
same,Efficacy %,Pyrenophora teres; 20 ppm,55%
same,Efficacy %,Pyricularia oryzae; 0.8 ppm,0%
same,Efficacy %,Pyricularia oryzae; 4 ppm,51%
same,Efficacy %,Pyricularia oryzae; 20 ppm,75%
same,Efficacy %,Ustilago avenae; 0.8 ppm,43%
same,Efficacy %,Ustilago avenae; 4 ppm,49%
same,Efficacy %,Ustilago avenae; 20 ppm,52%
same,LC50 at 96 h,[2],1.74 µg/mL
same,Efficacy in % found,"Sphaerotheca fuliginea; Table D3, 1 ppm a.i.",40%
same,Efficacy in % found,"Sphaerotheca fuliginea; Table D3, 2 ppm a.i.",93%
same,Efficacy in % found,"Sphaerotheca fuliginea; Table D3, 4 ppm a.i.",98%
